Measured values from PubChem BioAssay (NCI).
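1) Cells in 96-well plates. 2) Compound, 48 h, 5 concentrations. 3) Linear interpolation between surrounding doses. 4) Unreached endpoint = highest concentration. GI50 marks 50% less growth. The concentration for full growth arrest is given as TGI.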

Assays:
Assay in all cases: NCI tumour cell line growth inhibition, 48 h
[1] = tested on: UACC-257 melanoma
[2] = tested on: TK-10 renal
[3] = tested on: SF-268 CNS
[4] = tested on: UACC-62 melanoma
[5] = tested on: K-562 leukemia
[6] = tested on: HCC-2998 colon
[7] = tested on: EKVX NSCLC
[8] = tested on: MDA-MB-231 breast
[9] = tested on: A498 renal
[10] = tested on: SK-MEL-2 melanoma

SMILES	TGI [1]	TGI [2]	TGI [3]	TGI [4]	TGI [5]	TGI [6]	TGI [7]	TGI [8]	TGI [9]	TGI [10]	GI50 [1]	GI50 [2]	GI50 [3]	GI50 [4]	GI50 [8]	GI50 [5]	GI50 [6]	GI50 [10]	GI50 [7]
CCn1c(CCl)nc2c1C(=O)c1ccccc1C2=O	3.36 µM	8.73 µM	6.65 µM	3.14 µM	> 100 µM	2.9 µM	6.44 µM	–	–	–	–	–	–	–	–	–	–	–	–
COc1ccc(NCC(=O)Nn2c(-c3ccccc3)nc3ccccc3c2=O)cc1	> 100 µM	> 100 µM	> 100 µM	32.3 µM	> 100 µM	> 100 µM	> 100 µM	84.4 µM	88.6 µM	–	–	–	–	–	–	–	–	–	–
CCCCCCCCCCCc1c(O)c(=O)c2c(oc3c(=O)c(CCCCCCCCCCC)c(O)c(=O)c3n2-c2ccc(N(C)C)cc2)c1=O	40.2 µM	33 µM	58.1 µM	34.3 µM	> 100 µM	–	67.7 µM	–	36.9 µM	50.4 µM	–	–	–	–	–	–	–	–	–
C#CCN(Cc1ccc2nc(-c3ccccc3)c(N)nc2c1)c1cc(OC)c(OC)c(OC)c1	–	> 100 µM	> 100 µM	63.7 µM	> 100 µM	> 100 µM	> 100 µM	–	–	64.8 µM	–	–	–	–	–	–	–	–	–
CC(C)(C)OC(=O)NCc1cccc(N=C=S)c1	54.4 µM	70.8 µM	64.9 µM	30.6 µM	> 88.2 µM	30.9 µM	61 µM	> 85.7 µM	–	45.7 µM	21.7 µM	25.8 µM	21 µM	14.4 µM	25.7 µM	28.4 µM	16.3 µM	21.3 µM	23.4 µM
COc1ccc(C(=O)C#Cc2c[nH]c(=O)[nH]c2=O)cc1	27.4 µM	23.3 µM	55.3 µM	32.8 µM	37.3 µM	36.4 µM	> 54.4 µM	–	49.9 µM	21.4 µM	–	–	–	–	–	–	–	–	–
c1ccc2c(c1)cc1n2CCc2c-1[nH]c1ccccc21	> 10 µM	> 10 µM	> 10 µM	> 10 µM	> 10 µM	> 10 µM	> 10 µM	> 10 µM	–	> 10 µM	–	–	–	–	–	–	–	–	–
COc1cccc(SSc2cccc(OC)c2C(=O)O)c1C(=O)O	> 100 µM	> 100 µM	> 100 µM	> 100 µM	> 100 µM	–	> 100 µM	–	> 100 µM	> 100 µM	–	–	–	–	–	–	–	–	–
N#Cc1cccc(C=NC23CC4CC(CC(C4)C2)C3)c1	> 100 µM	> 100 µM	> 100 µM	> 100 µM	> 100 µM	> 100 µM	> 100 µM	–	> 100 µM	> 100 µM	–	–	–	–	–	–	–	–	–
c1ccc(OCc2nnc3n2N=C(c2ccccc2)CS3)cc1	> 100 µM	> 100 µM	> 100 µM	> 100 µM	> 100 µM	> 100 µM	–	–	> 100 µM	> 100 µM	–	–	–	–	–	–	–	–	–
Cc1nc2cc(Nc3ccccc3C(=O)O)ccc2s1	–	> 100 µM	> 100 µM	> 100 µM	> 100 µM	> 100 µM	–	–	> 100 µM	> 100 µM	–	–	–	–	–	–	–	–	–
